Values joined by “and” are separate entries in the source; they are usually repeats but may differ in a detail not shown here. Equal values may be shown once.
Test system: worker termites of Reticulitermes santonensis type
Assay: Insecticidal activity of fipronil plus hydrocarbon compound mixture, termite mortality after 3 days (Example 4)
Type: in vivo
Conditions: matrix sprayed with hydrocarbon compound mixture (Mixture B), 100 termites
Experimental: The experiment is conducted in a LAB test box (6 cm×9 cm) containing on the bottom 2 mm of wet Fontainebleau sand and is repeated five times. In the box, a matrix is placed, consisting of a foam cube in which holes are made with a diameter of 5 mm, over which a small piece of poplar wood is placed (1 cm×2 cm×2 cm). The foam is impregnated with cold fipronil. The matrix is sprayed with a hydrocarbon compound mixture including 11.4% of 5-methylpentacosane; 36.3% of 11-methylpentacosane; 19.6% of (Z)-9-pentacosene; 27.7% of n-pentacosane, and 5% of n-hexacosane. Only 4 faces are sprayed. The top and the bottom of the matrix are not treated.
In the box, an untreated piece of poplar wood is also placed in order to recreate a natural situation as exactly as possible.
100 worker termites of Reticulitermes santonensis type are placed in the box and their mortality after 3 days is evaluated. Various concentrations of cold fipronil are tested: 0.5 ppm, 1 ppm, 2 ppm, 5 ppm, and 7 ppm.

With `N#Cc1nn(-c2c(Cl)cc(C(F)(F)F)cc2Cl)c(N)c1[S+]([O-])C(F)(F)F` (stereo not drawn) [Fipronil, fipronil] the “Number of termites dead after 3 days” value (fipronil at 0.5 ppm, average of 5 trials) was 0, the “Number of termites dead after 3 days” value (fipronil at 0.5 ppm, single trials) was 0 and the “Number of termites dead after 3 days” value (fipronil at 1 ppm, average of 5 trials) was 0. For the same molecule, the “Number of termites dead after 3 days” value (fipronil at 1 ppm, single trials) was 0, the “Number of termites dead after 3 days” value (fipronil at 2 ppm, average of 5 trials) was 20 and the “Number of termites dead after 3 days” value (fipronil at 5 ppm, average of 5 trials) was 50.4. For the same molecule, the “Number of termites dead after 3 days” value (fipronil at 5 ppm, single trials) was 42 and 45 and 59 and 56 and 50, the “Number of termites dead after 3 days” value (fipronil at 7 ppm, average of 5 trials) was 50.8 and the “Number of termites dead after 3 days” value (fipronil at 7 ppm, single trials) was 60 and 42 and 55 and 34 and 63.
